# In patent publication US11213055B2, “Fermentate compositions and methods of making and using the same” (Third Wave Bioactives, LLC, priority 2017, dated 2022):
# Where “and” joins values, the source holds several entries; their conditions need not be identical. Identical values can stand only once.
# How the values were obtained:
# [1] = test system: total aerobic plate count (APC); experiment: total aerobic plate count (APC) in dark chocolate sauce; assay type: cell-based
# Method: (§1) The treatments were prepared by dissolving the spray dried fermentate in 15 ml sterile water and then mixed into the sauce using sterile hand whisks. One of the L. reuteri fermentate treatments was incubated for 30 minutes in a water bath set at 60° C. prior to addition to the chocolate sauce to determine how heat would affect the treatment since traditional manufacturing of the chocolate sauce includes a heating step.
# (§2) All jars were then inoculated with a dual yeast challenge of Zygosaccharomyces rouxii strain, Y-229, and Torulaspora delbruckii strain, Y-866, which were both obtained from the ARS NRRL Culture Collection. The yeast strains were grown in Potato Dextrose broth at 32° C. overnight, then diluted in sterile water to approximately 2.0×10^5 CFU/ml. The two strains were then combined and 5 ml of the combination culture was added to each jar to provide a challenge dose of approximately 1.0×10^3 CFU/ml.
# (§3) A 10-gram sample was removed from each jar immediately after challenge inoculation to analyze the pH and the initial yeast count in duplicate on Potato Dextrose Agar acidified with 10% Tartaric Acid (PDA4-TA) as well as the total aerobic plate count (APC) in duplicate on Tryptic Soy Agar (TSA). Once solidified, the PDA+TA plates were incubated at 28° C. for 72 hours and the TSA plates were incubated at 32° C. for 48 hours, then counted to determine CFU/g. The jars were kept at room temperature (˜20-22° C.) in a dark cabinet for the first 21 days, then moved to an incubator set at 28° C. for the duration of the study. On days 4, 7, 11, 14, 18, 21, 28, 35, 49, 56, 63, 94, 109, and 124, a 10-gram sample was removed from each jar to analyze the change in pH, as well as the yeast and APC levels in duplicate as described above.
# [2] = test system: Zygosaccharomyces rouxii strain, Y-229, and Torulaspora delbruckii strain, Y-866; experiment: yeast challenge in dark chocolate sauce, yeast enumeration; assay type: cell-based
# Method: as §1, §2, §3
smiles,measurement,setting,value
C/C=C/C=C/C(=O)[O-].[K+] [Potassium sorbate],"APC, CFU/g (duplicate counts)",[1]; day 0,2.83E+03 CFU/g and 2.94E+03 CFU/g
same,"APC, AVG","[1]; day 0, average of duplicate counts",2.89E+03 CFU/g
same,"APC, CFU/g (duplicate counts)",[1]; day 4,2.57E+03 CFU/g and 2.96E+03 CFU/g
same,"APC, AVG","[1]; day 4, average of duplicate counts",2.77E+03 CFU/g
same,"APC, CFU/g (duplicate counts)",[1]; day 7,2.47E+03 CFU/g and 3.12E+03 CFU/g
same,"APC, AVG","[1]; day 7, average of duplicate counts",2.79E+03 CFU/g
same,"APC, CFU/g (duplicate counts)",[1]; day 11,2.24E+03 CFU/g and 2.49E+03 CFU/g
same,"APC, AVG","[1]; day 11, average of duplicate counts",2.36E+03 CFU/g
same,"APC, CFU/g (duplicate counts)",[1]; day 14,1.59E+03 CFU/g and 2.13E+03 CFU/g
same,"APC, AVG","[1]; day 14, average of duplicate counts",1.86E+03 CFU/g
same,"APC, CFU/g (duplicate counts)",[1]; day 18,1.44E+03 CFU/g and 1.56E+03 CFU/g
same,"APC, AVG","[1]; day 18, average of duplicate counts",1.50E+03 CFU/g
same,"APC, CFU/g (duplicate counts)",[1]; day 21,1.13E+03 CFU/g and 1.31E+03 CFU/g
same,"APC, AVG","[1]; day 21, average of duplicate counts",1.22E+03 CFU/g
same,"APC, CFU/g (duplicate counts)",[1]; day 28,8.53E+02 CFU/g and 9.84E+02 CFU/g
same,"APC, AVG","[1]; day 28, average of duplicate counts",9.19E+02 CFU/g
same,"APC, CFU/g (duplicate counts)",[1]; day 35,7.22E+02 CFU/g and 6.82E+02 CFU/g
same,"APC, AVG","[1]; day 35, average of duplicate counts",7.02E+02 CFU/g
same,"APC, CFU/g (duplicate counts)",[1]; day 49,6.85E+02 CFU/g and 6.14E+02 CFU/g
same,"APC, AVG","[1]; day 49, average of duplicate counts",6.50E+02 CFU/g
same,"APC, CFU/g (duplicate counts)",[1]; day 56,5.72E+02 CFU/g and 3.71E+02 CFU/g
same,"APC, AVG","[1]; day 56, average of duplicate counts",4.71E+02 CFU/g
same,"APC, CFU/g (duplicate counts)",[1]; day 63,5.89E+02 CFU/g and 6.79E+02 CFU/g
same,"APC, AVG","[1]; day 63, average of duplicate counts",6.34E+02 CFU/g
same,"APC, CFU/g (duplicate counts)",[1]; day 94,5.54E+02 CFU/g and 7.62E+02 CFU/g
same,"APC, AVG","[1]; day 94, average of duplicate counts",6.58E+02 CFU/g
same,"APC, CFU/g (duplicate counts)",[1]; day 109,6.36E+02 CFU/g and 5.52E+02 CFU/g
same,"APC, AVG","[1]; day 109, average of duplicate counts",5.94E+02 CFU/g
same,"APC, CFU/g (duplicate counts)",[1]; day 124,2.52E+02 CFU/g and 3.78E+02 CFU/g
same,"APC, AVG","[1]; day 124, average of duplicate counts",3.15E+02 CFU/g
same,day at which resurgence of yeast started,[2]; dark chocolate sauce,49 days
same,day at which yeast levels were no longer detectable (<10 CFU/g),[2]; dark chocolate sauce,35 days
same,"Enumeration of yeast in dark chocolate sauce, AVG",[2]; day 0,2.00E+03 CFU/g
same,"Enumeration of yeast in dark chocolate sauce, duplicate counts",[2]; day 0,1.73E+03 CFU/g and 2.27E+03 CFU/g
same,"Enumeration of yeast in dark chocolate sauce, AVG",[2]; day 4,1.23E+03 CFU/g
same,"Enumeration of yeast in dark chocolate sauce, duplicate counts",[2]; day 4,9.49E+02 CFU/g and 1.51E+03 CFU/g
same,"Enumeration of yeast in dark chocolate sauce, AVG",[2]; day 7,9.08E+02 CFU/g
same,"Enumeration of yeast in dark chocolate sauce, duplicate counts",[2]; day 7,6.43E+02 CFU/g and 1.17E+03 CFU/g
same,"Enumeration of yeast in dark chocolate sauce, AVG",[2]; day 11,1.02E+03 CFU/g
same,"Enumeration of yeast in dark chocolate sauce, duplicate counts",[2]; day 11,1.10E+03 CFU/g and 9.43E+02 CFU/g
same,"Enumeration of yeast in dark chocolate sauce, AVG",[2]; day 14,5.48E-02 CFU/g
same,"Enumeration of yeast in dark chocolate sauce, duplicate counts",[2]; day 14,4.99E+02 CFU/g and 5.98E+02 CFU/g
same,"Enumeration of yeast in dark chocolate sauce, AVG",[2]; day 18,3.30E+02 CFU/g
same,"Enumeration of yeast in dark chocolate sauce, AVG",[2]; day 21,2.06E+02 CFU/g
same,"Enumeration of yeast in dark chocolate sauce, AVG",[2]; day 28,1.26E+02 CFU/g
same,"Enumeration of yeast in dark chocolate sauce, duplicate counts",[2]; day 28,1.51E+02 CFU/g and 1.00E+02 CFU/g
same,"Enumeration of yeast in dark chocolate sauce, AVG",[2]; day 35,<10 CFU/g
same,"Enumeration of yeast in dark chocolate sauce, duplicate counts",[2]; day 35,<10 CFU/g
same,"Enumeration of yeast in dark chocolate sauce, AVG",[2]; day 49,1.53E+01 CFU/g
same,"Enumeration of yeast in dark chocolate sauce, AVG",[2]; day 56,<10 CFU/g
same,"Enumeration of yeast in dark chocolate sauce, duplicate counts",[2]; day 56,<10 CFU/g
same,"Enumeration of yeast in dark chocolate sauce, AVG",[2]; day 63,<10 CFU/g
same,"Enumeration of yeast in dark chocolate sauce, duplicate counts",[2]; day 63,<10 CFU/g
same,"Enumeration of yeast in dark chocolate sauce, AVG",[2]; day 94,3.71E+02 CFU/g
same,"Enumeration of yeast in dark chocolate sauce, duplicate counts",[2]; day 94,3.07E+02 CFU/g and 4.35E+02 CFU/g
same,"Enumeration of yeast in dark chocolate sauce, AVG",[2]; day 109,1.50E+02 CFU/g
same,"Enumeration of yeast in dark chocolate sauce, AVG",[2]; day 124,1.21E+04 CFU/g
same,"Enumeration of yeast in dark chocolate sauce, duplicate counts",[2]; day 124,1.25E+04 CFU/g and 1.17E+04 CFU/g
